Test results reported in patent US6514997B2, “Antipicornaviral compounds and compositions, their pharmaceutical uses, and materials for their synthesis” (Agouron Pharmaceuticals, Inc., priority 1999, dated 2003).
Like-named read-outs stand apart in the source and are kept apart here. Blank lines part the entries; values can stand above or below the molecule they belong to.

Key:
[1] = molecular target: T1, Recombinant rhinovirus 3C protease, serotype 14 (Human rhinovirus 14, UniProt P03303); assay: Inhibition of rhinovirus 3C protease (FRET assay, kobs/[I]), serotype 14; type: biochemical; conditions: for kinact/KI: pH 7.6, read-out: kobs/[I] (3C protease inhibition activity)
T1 construct: Recombinant rhinovirus 3C proteases; made in house
Protocol: Inhibition of Rhinovirus 3C Protease:
Stock solutions (50 mM, in DMSO) of various compounds were prepared; dilutions were in the same solvent. Recombinant rhinovirus 3C proteases (see Birch et al., “Purification of recombinant human rhinovirus 14 3C protease expressed in Escherichia coli,” Protein Expr. Pur. (1995), vol. 6(5), 609-618) from serotypes 14, 16, and 2 were prepared by the following standard chromatographic procedures: (1) ion exchange using Q Sepharose Fast Flow from Pharmacia; (2) affinity chromatography using Affi-Gel Blue from Biorad; and (3) sizing using Sephadex G-100 from Pharmacia. Each assay sample contained 2% DMSO, 50 mM tris pH 7.6, 1 mM EDTA, a test compound at the indicated concentration, approximately 1 μM substrate, and 50-100 nM protease. The kobs/I values were obtained from reactions initiated by addition of enzyme rather than substrate. RVP activity was measured in the fluorescence resonance energy transfer assay. The substrate was (N-terminal) DABCYL-([…]-EDANS. In the uncleaved peptide, the EDANS fluorescence was quenched by the proximal DABCYL moiety. When the peptide was cleaved, the quenching was relieved, and activity was measured as an increase in fluorescence signal. The tabulated data in the column designated kobs/[I] were measured from progress curves in enzyme start experiments.

HRV-14 = assay: Antirhinoviral H1-HeLa cell culture assay (XTT cell protection, EC50), HRV-14; type: cell-based, human rhinovirus (HRV) serotype-14 in H1-HeLa cells
Protocol: (§1) Antirhinoviral H1-HeLa Cell Culture Assay:
(§2) In this cell protection assay, the ability of compounds to protect cells against HRV infection was measured by the XTT dye reduction method, which is described in Weislow et al., J. Natl. Cancer Inst. […] H1-HeLa cells were infected with HRV-14 at a multiplicity of infection (m.o.i.) of 0.13 (virus particles/cell) or mock-infected with medium only. Infected or mock-infected cells were resuspended at 8×10^5 cells per mL, and incubated with appropriate concentrations of the compounds to be tested. Two days later, XTT/PMS was added to test plates and the amount of formazan produced was quantified spectrophotometrically at 450/650 nm. […] The therapeutic index (TI) was calculated by dividing the CC50 value by the EC50 value.
(§3) All strains of human rhinovirus (HRV) for use in this assay were purchased from American Type Culture Collection (ATCC), except for HRV serotype-14 (produced from the infectious cDNA clone constructed by Dr. Robert Rueckert, Institute for Molecular Virology, University of Wisconsin, Madison, Wis.). HRV stocks were propagated and viral assays were performed in H1-HeLa cells (ATCC). Cells were grown in minimal essential medium with 10% fetal bovine serum, available from Life Technologies (Gaithersburg, Md.).

H1-HeLa cells = assay: Cytotoxicity (CC50) in mock-infected H1-HeLa cells, XTT dye reduction; type: cell-based, human
Protocol: as §2, §3
(§4) Coxsackievirus types A-21 (CAV-21) and B3 (CVB3) were purchased from American Type Culture Collection (ATCC, Rockville, Md.). Virus stocks were propagated and antiviral assays were performed in H1-HeLa cells (ATCC). Cells were grown in minimal essential medium with 10% fetal bovine serum (Life Technologies, Gaithersburg, Md.). The ability of the compounds of this invention to protect cells against either CAV-21 or CVB3 infection was measured by the XTT dye reduction method. This method is described in Weislow et al., J. Natl. Cancer Inst. […] H1-HeLa cells were infected with CAV-21 or CVB3 at a multiplicity of infection (m.o.i.) of 0.025 or 0.075, respectively, or mock-infected with medium only. H1-HeLa cells were plated at 4×10^4 cells per well in a 96-well plate and incubated with appropriate concentrations of the test compound. One day (CVB3) or two days (CAV-21) later, XTT/PMS was added to test plates and the amount of formazan produced was quantified spectrophotometrically at 450/650 nm. […] The therapeutic index (TI) was calculated by dividing the CC50 by the EC50.

[2] = test system: strains of human rhinovirus (HRV); assay: Antirhinoviral H1-HeLa cell culture assay (XTT cell protection, EC50), other HRV strains; type: cell-based, human rhinovirus in H1-HeLa cells; conditions: read-out: EC50
Protocol: as §1
In this cell protection assay, the ability of compounds to protect cells against HRV infection was measured by the XTT dye reduction method, which is described in Weislow et al., J. Natl. Cancer Inst. (1989), vol. 81, 577-586. H1-HeLa cells were infected with HRV-14 at a multiplicity of infection (m.o.i.) of 0.13 (virus particles/cell) or mock-infected with medium only. Infected or mock-infected cells were resuspended at 8×10^5 cells per mL, and incubated with appropriate concentrations of the compounds to be tested. Two days later, XTT/PMS was added to test plates and the amount of formazan produced was quantified spectrophotometrically at 450/650 nm. […] The therapeutic index (TI) was calculated by dividing the CC50 value by the EC50 value.
as §3

[3] = Cytotoxicity (CC50) in mock-infected H1-HeLa cells, XTT dye reduction; type: cell-based, human; conditions: human, H1-HeLa cells, mock-infected; line of HRV-14
Protocol: as §2, §3, §4

T1 sequence (P03303 1538-1719): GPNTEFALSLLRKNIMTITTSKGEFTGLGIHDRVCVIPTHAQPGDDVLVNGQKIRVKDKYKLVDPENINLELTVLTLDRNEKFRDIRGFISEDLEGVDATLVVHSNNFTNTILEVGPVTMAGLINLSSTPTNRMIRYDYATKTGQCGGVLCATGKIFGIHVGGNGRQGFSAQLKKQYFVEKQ

kinact/KI ([1]; HRV-14): 574 M⁻¹ s⁻¹
Structure (SMILES): CCOC(=O)/C=C/[C@H](C[C@@H]1CCNC1=O)NC(=O)[C@@H](Cc1ccccc1)n1ccc2cc[nH]c2c1=O [Compound 4]

kinact/KI ([1]; HRV-14): 673 M⁻¹ s⁻¹
Structure (SMILES): CCOC(=O)/C=C/[C@H](C[C@@H]1CCNC1=O)NC(=O)[C@H](Cc1ccccc1)N1CCc2c(C)c[nH]c2C1=O [Compound 45, 4S-[2S-(3-Methyl-7-oxo-1,4,5,7-tetrahydro-pyrrolo[2,3-c]pyridin-6-yl)3-phenyl-propionylamino]-5-(2-oxo-pyrrolidin-3-yl)pent-2(trans)-enoic acid ethyl ester]

kinact/KI ([1]; HRV-14): 8800 M⁻¹ s⁻¹
Structure (SMILES): CCOC(=O)/C=C/[C@H](CCC(N)=O)NC(=O)[C@H](Cc1ccc(F)cc1)n1cccc(NC(=O)C(F)(F)F)c1=O [Compound 24, trans-(2′S,4S)-6-Carbamoyl-4-{3′-(4″-fluorophenyl)-2′-[2′″-oxo-3′″-(2″″,2″″,2″″-trifluoroacetylamino)-2′″H-pyridin-1′″-yl]propionylamino}hex-2-enoic Acid Ethyl Ester]

Structure (SMILES): Cc1cc(CCCCCCCOc2ccc(C3=NCCO3)cc2)on1 [WIN 51711, reference compound]
EC50 (HRV-14; HRV-14, read-out: EC50): 780 nM | CC50 (H1-HeLa cells; HRV-14): > 60000 nM

Structure (SMILES): CCC(C(=O)N[C@H](/C=C/C(=O)OCC(C)(C)C)C[C@@H]1CCNC1=O)n1cccc(NC(=O)c2cc(C)on2)c1=O (relative stereo) [Compound 42, trans-(2′S,3′″″S,4S)-4-[2′-(3″-{[1′″-(5″″-Methylisoxazol-3″″-yl)methanoyl]amino}-2′″-oxo-2′″H-pyridin-1′″-yl)butanoylamino]-5-(2′″″-oxopyrrolidin-3′″″-yl)pent-2-enoic Acid 2,2-Dimethylpropyl Ester]
EC50 (HRV-14; HRV-14, read-out: EC50): 168 nM | kobs/[I] (3C protease inhibition activity) ([1]; HRV-14): 38,200 M^−1s^−1 | CC50 (H1-HeLa cells; line of HRV-2): > 10000 nM | CC50 (H1-HeLa cells; line of HRV-3): > 10000 nM | CC50 (H1-HeLa cells; line of HRV-9): > 10000 nM | CC50 (H1-HeLa cells; line of HRV-14): > 10000 nM | CC50 (H1-HeLa cells; line of HRV-16): > 10000 nM | CC50 (H1-HeLa cells; line of HRV-25): > 10000 nM | CC50 (H1-HeLa cells; line of HRV-39): > 10000 nM | EC50 ([2]; HRV-2): 161 nM | EC50 ([2]; HRV-3): 152 nM | EC50 ([2]; HRV-9): 521 nM | EC50 ([2]; HRV-16): 402 nM | EC50 ([2]; HRV-25): 611 nM | EC50 ([2]; HRV-39): 158 nM

Structure (SMILES): Cc1cc(C(=O)Nc2cccn(C(Cc3ccc(F)c(F)c3)C(=O)N[C@H](/C=C/C(=O)OCC(C)(C)C)C[C@@H]3CCNC3=O)c2=O)no1 (relative stereo) [Compound 47, trans-(2′S,3″″″S,4S)-4-[3′-(3″,4″-Difluorophenyl)-2′-(3′″-{[1″″-(5′″″-methylisoxazol-3′″″-yl)methanoyl]amino}-2″″-oxo-2″″H-pyridin-1″″-yl)propanoylamino]-5-(2″″″-oxopyrrolidin-3″″″-yl)pent-2-enoic Acid 2,2-Dimethylpropyl Ester]
EC50 (HRV-14; HRV-14, read-out: EC50): 40 nM | kobs/[I] (3C protease inhibition activity) ([1]; HRV-14): 1,400,000 M^−1s^−1 | CC50 (H1-HeLa cells; line of HRV-1A): > 10000 nM | CC50 (H1-HeLa cells; line of HRV-2): > 10000 nM | CC50 (H1-HeLa cells; line of HRV-3): > 10000 nM | CC50 (H1-HeLa cells; line of HRV-9): > 10000 nM | CC50 (H1-HeLa cells; line of HRV-10): > 10000 nM | CC50 (H1-HeLa cells; line of HRV-14): > 10000 nM | CC50 (H1-HeLa cells; line of HRV-16): > 10000 nM | CC50 (H1-HeLa cells; line of HRV-25): > 10000 nM | CC50 (H1-HeLa cells; line of HRV-39): > 10000 nM | EC50 ([2]; HRV-1A): 148 nM | EC50 ([2]; HRV-2): 133 nM | EC50 ([2]; HRV-3): 18 nM | EC50 ([2]; HRV-9): 121 nM | EC50 ([2]; HRV-10): 114 nM | EC50 ([2]; HRV-16): 49 nM | EC50 ([2]; HRV-25): 193 nM | EC50 ([2]; HRV-39): 168 nM

kinact/KI ([1]; HRV-14 3C protease): 15000 M⁻¹ s⁻¹
Structure (SMILES): CC[C@@H](C(=O)N[C@H](/C=C/C(=O)OC1CCCCCC1)C[C@@H]1CCNC1=O)n1cccc(NC(=O)c2cc(C)on2)c1=O [Compound 61, trans-(2′S,3′″″S,4S)-4-[2′-(3″-{[1′″-(5″″-Methylisoxazol-3″″-yl)methanoyl]amino}-2′″oxo-2′″H-pyridin-1′″-yl)butanoylamino]-5-(2′″″-oxopyrrolidin-3′″″-yl)pent-2-enoic Acid Cycloheptyl Ester]

Structure (SMILES): Cc1cc(C(=O)Nc2cccn([C@@H](Cc3ccc(F)c(F)c3)C(=O)N[C@H](/C=C/C(=O)O)C[C@@H]3CCNC3=O)c2=O)no1 [Compound 51, trans-(2′S,3″″″S,4S)-4-[3′-(3″,4″-Difluorophenyl)-2′-(3′″-{[1″″-(5′″″-methylisoxazol-3′″″-yl)methanoyl]amino}-2″″-oxo-2″″H-pyridin-1″″-yl)propanoylamino]-5-(2″″″-oxopyrrolidin-3″″″-yl)pent-2-enoic Acid]
EC50 (HRV-14; Rhinovirus B, HRV14, H1-HeLa): > 10000 nM | CC50 (H1-HeLa cells; line of HRV-9): > 10000 nM | CC50 (H1-HeLa cells; line of HRV-16): > 10000 nM | CC50 (H1-HeLa cells; line of HRV-25): > 10000 nM | CC50 at 2 days [3]: > 10000 nM | EC50 ([2]; Human rhinovirus sp., HRV9, H1-HeLa, HRV-9): > 1000 nM | EC50 ([2]; Human rhinovirus sp., HRV16, H1-HeLa, HRV-16): > 10000 nM | EC50 ([2]; Human rhinovirus sp., HRV25, H1-HeLa, HRV-25): > 10000 nM

Structure (SMILES): Cc1cc(CCCCCCCOc2ccc(C3=N[C@@H](C)CO3)cc2)on1 [WIN 52084, reference compound]
EC50 (HRV-14; HRV-14, read-out: EC50): 70 nM | CC50 (H1-HeLa cells; HRV-14): > 10000 nM

EC50 (HRV-14; Rhinovirus B, HRV14, H1-HeLa, HRV-14, read-out: EC50): 16800 nM
Structure (SMILES): Cc1cc(C(=O)Nc2ccc3n(c2=O)[C@H](C(=O)N[C@H](/C=C2\CCOC2=O)C[C@@H]2CCNC2=O)CC3)no1 [Compound 38, trans-(2″S,3S,3′″S)-6-[(5′-Methylisoxazole-3′-carbonyl)amino]-5-oxo-1,2,3,5-tetrahydroindolizine-3-carboxylic Acid [2″-(2′″-oxodihydrofuran-3′″-ylidene)-1″-(2″″-oxopyrrolidin-3″″-ylmethyl)ethyl]amide]
CC50 at 2 days [3]: > 100000 nM

kinact/KI ([1]; HRV-14 3C protease): 39500 M⁻¹ s⁻¹
Structure (SMILES): CCOC(=O)/C=C/[C@H](C[C@@H]1CCNC1=O)NC(=O)[C@H](CC)n1cc(C(F)(F)F)cc(NC(=O)c2cc(C)on2)c1=O [Compound 68, trans-(2′S,3″″S,4S)-4-[2′-({[1″-(5′″-Methylisoxazol-3′″-yl)methanoyl]amino}-oxotrifluoromethyl-2″H-pyridin-1″-yl)butanoylamino]-5-(2″″-oxopyrrolidin-3″″-yl)pent-2-enoic Acid Ethyl Ester]
